Marks after values point to notes of the source that are not given here.
System: patients with nocturia
Test: Non-randomized trial treatment with loxoprofen in patients with nocturia; voids/night outcome assessed as excellent, improved, unchanged or worsened
Format: in vivo, human
Experimental: One hundred forty one patients (135 men) aged 49 to 89 (mean 70.5) years with LUTS and =2 voids per night were enrolled in the study. Their main diseases were BPH (n=93), prostate cancer (n=24) and neurogenic bladder (NB) (n=13); 11 had other diseases. […] Patients who had asthma, gastrointestinal disorders, renal dysfunction and allergies to loxoprofen were excluded. Patients took a single 60 mg loxoprofen tablet prior to sleeping at night for 4 to 14 days initially concurrently with their treatments for their main diseases. Numbers of voids/night as reported by each patient were evaluated and treatment outcome was assessed as either excellent (nocturia disappeared or decreased by =2 voids/night), improved (nocturia decreased by 1 void/night), unchanged or worsened (nocturia increased).

[1] = 60 mg prior to sleeping, 108 patients who did not respond to anticholinergic drugs
[2] = 60 mg prior to sleeping, Antidiuretic hormone non-responder, 3 patients
[3] = 60 mg prior to sleeping, Antidiuretic hormone responder, 6 patients
[4] = 60 mg prior to sleeping, BPH, 93 patients
[5] = 60 mg prior to sleeping, BPH, 93 patients, listed as Loxoprofen
[6] = 60 mg prior to sleeping, Female, 6
[7] = 60 mg prior to sleeping, Insomnia, 20 patients
[8] = 60 mg prior to sleeping, Male, 135
[9] = 60 mg prior to sleeping, Neurogenic bladder, 13 patients
[10] = 60 mg prior to sleeping, Neurogenic bladder, 13 patients, listed as Loxoprofen
[11] = 60 mg prior to sleeping, Nocturnal polyuria, 7 patients
[12] = 60 mg prior to sleeping, Post-TURP, 18 patients
[13] = 60 mg prior to sleeping, Post-thermotherapy, 19 patients
[14] = 60 mg prior to sleeping, Prostate cancer, 24 patients
[15] = 60 mg prior to sleeping, Prostate cancer, 24 patients, listed as Loxoprofen
[16] = 60 mg prior to sleeping, Prostate cancer, hormone therapy, 15 patients
[17] = 60 mg prior to sleeping, Prostate cancer, post-prostatectomy (radical), 5 patients
[18] = 60 mg prior to sleeping, Prostate cancer, post-radiation, 4 patients
[19] = 60 mg prior to sleeping, Prostatodynia, 5 patients
[20] = 60 mg prior to sleeping, Urinary frequency with UUI, 10 patients
[21] = 60 mg prior to sleeping, Urinary frequency without UUI, 9 patients
[22] = 60 mg prior to sleeping, aged 49 to 59 years
[23] = 60 mg prior to sleeping, aged 60 to 69 years
[24] = 60 mg prior to sleeping, aged 70 to 79 years
[25] = 60 mg prior to sleeping, aged 80 to 86 years
[26] = 60 mg prior to sleeping, frequency at baseline 2 and 2-3, 56 patients
[27] = 60 mg prior to sleeping, frequency at baseline 3-4, 59 patients
[28] = 60 mg prior to sleeping, frequency at baseline 4-5, 15 patients
[29] = 60 mg prior to sleeping, frequency at baseline >5, 11 patients
[30] = 60 mg prior to sleeping, non-responders to Anticholinergics, 32 patients
[31] = 60 mg prior to sleeping, non-responders to Hypnotics, 42 patients
[32] = 60 mg prior to sleeping, non-responders to TCA (tricyclic antidepressants), 76 patients

CC(C(=O)O)c1ccc(CC2CCCC2=O)cc1 (centres unmarked) [loxoprofen, loxoprofen sodium]
Onset of changes in patients' symptoms (60 mg prior to sleeping): starting from the first night of therapy | Excellent responder rate (60 mg prior to sleeping, 85 patients with more frequent nocturia than 2 to 3 episodes at baseline): 46% | Excellent rate [1]: 44% | Improved rate [1]: 38% | Nocturia improved or disappeared, % of patients overall (60 mg prior to sleeping, 141 patients): 72% | Improved, % of patients [2]: (33%) | Improved, no. of patients [2]: 1 | Unchanged, % of patients [2]: 67% | Unchanged, no. of patients [2]: 2 | Excellent, % of patients [3]: (17%) | Excellent, no. of patients [3]: 1 | Improved, % of patients [3]: (67%) | Improved, no. of patients [3]: 4 | Unchanged, % of patients [3]: 17% | Unchanged, no. of patients [3]: 1 | Excellent, % of patients [4]: (39%) | Excellent, no. of patients [4]: 36^ | Improved, % of patients [4]: (34%) | Improved, no. of patients [4]: 32^ | Unchanged, % of patients [4]: (23%) | Unchanged, no. of patients [4]: 21^ | Worsened, % of patients [4]: (4%) | Worsened, no. of patients [4]: 4 | Excellent, % of patients [5]: 39% | Improved, % of patients [5]: 34% | Excellent, % of patients [6]: (33%) | Excellent, no. of patients [6]: 2 | Improved, % of patients [6]: (33%) | Improved, no. of patients [6]: 2 | Unchanged, % of patients [6]: (33%) | Unchanged, no. of patients [6]: 2 | Excellent, % of patients [7]: (35%) | Excellent, no. of patients [7]: 7^ | Improved, % of patients [7]: (40%) | Improved, no. of patients [7]: 8^ | Unchanged, % of patients [7]: (20%) | Unchanged, no. of patients [7]: 4^ | Worsened, % of patients [7]: (5%) | Worsened, no. of patients [7]: 1 | Excellent, % of patients (60 mg prior to sleeping, Insomnia, 20 patients, listed as Loxoprofen): 35% | Excellent, no. of patients (60 mg prior to sleeping, Interstitial cystitis, 2 patients): 2^¶ | Excellent, % of patients [8]: (36%) | Excellent, no. of patients [8]: 49 | Improved, % of patients [8]: (36%) | Improved, no. of patients [8]: 48 | Unchanged, % of patients [8]: (24%) | Unchanged, no. of patients [8]: 32 | Worsened, % of patients [8]: (4%) | Worsened, no. of patients [8]: 6 | Excellent, % of patients [9]: (69%) | Excellent, no. of patients [9]: 9^‡ | Improved, % of patients [9]: (8%) | Improved, no. of patients [9]: 1^¶ | Unchanged, % of patients [9]: (15%) | Unchanged, no. of patients [9]: 2^¶ | Worsened, % of patients [9]: (8%) | Worsened, no. of patients [9]: 1 | Excellent, % of patients [10]: 69% | Improved, % of patients [10]: 8% | Excellent, % of patients [11]: (14%) | Excellent, no. of patients [11]: 1^ | Improved, % of patients [11]: (71%) | Improved, no. of patients [11]: 5^ | Unchanged, % of patients [11]: (14%) | Unchanged, no. of patients [11]: 1^ | Excellent, % of patients (60 mg prior to sleeping, Nocturnal polyuria, 7 patients, listed as Loxoprofen): 14% | Excellent, no. of patients [12]: 8 | Improved, % of patients [12]: (27%) | Improved, no. of patients [12]: 5 | Unchanged, % of patients [12]: 22% | Unchanged, no. of patients [12]: 4 | Worsened, % of patients [12]: 6% | Worsened, no. of patients [12]: 1 | Excellent, no. of patients [13]: 8 | Improved, % of patients [13]: (26%) | Improved, no. of patients [13]: 5 | Unchanged, % of patients [13]: 32% | Unchanged, no. of patients [13]: 6 | Excellent, % of patients [14]: (29%) | Excellent, no. of patients [14]: 7^ | Improved, % of patients [14]: (33%) | Improved, no. of patients [14]: 8^ | Unchanged, % of patients [14]: (33%) | Unchanged, no. of patients [14]: 8^ | Worsened, % of patients [14]: (4%) | Worsened, no. of patients [14]: 1 | Excellent, % of patients [15]: 29% | Improved, % of patients [15]: 33% | Excellent, no. of patients [16]: 5^ | Improved, no. of patients [16]: 3^ | Unchanged, no. of patients [16]: 6^ | Worsened, no. of patients [16]: 1 | Excellent, no. of patients [17]: 1^ | Improved, no. of patients [17]: 2^ | Unchanged, no. of patients [17]: 2^ | Excellent, no. of patients [18]: 1^ | Improved, no. of patients [18]: 3^ | Excellent, % of patients [19]: (20%) | Excellent, no. of patients [19]: 1^ | Improved, % of patients [19]: (40%) | Improved, no. of patients [19]: 2^ | Unchanged, % of patients [19]: (20%) | Unchanged, no. of patients [19]: 1^ | Worsened, % of patients [19]: (20%) | Worsened, no. of patients [19]: 1 | Worsened, no. of patients (60 mg prior to sleeping, Total 141): 6 | Excellent, % of patients [20]: (20%) | Excellent, no. of patients [20]: 2^ | Improved, % of patients [20]: (50%) | Improved, no. of patients [20]: 5^† | Unchanged, % of patients [20]: (30%) | Unchanged, no. of patients [20]: 3^¶ | Excellent, % of patients (60 mg prior to sleeping, Urinary frequency with UUI, 10 patients, listed as Loxoprofen): 20% | Excellent, % of patients [21]: (44%) | Excellent, no. of patients [21]: 4^¶ | Improved, % of patients [21]: (22%) | Improved, no. of patients [21]: 2^ | Unchanged, % of patients [21]: (22%) | Unchanged, no. of patients [21]: 2^¶ | Worsened, % of patients [21]: (11%) | Worsened, no. of patients [21]: 1 | Excellent, % of patients (60 mg prior to sleeping, Urinary frequency without UUI, 9 patients, listed as Loxoprofen): 44% | Excellent responses, % of patients [22]: 50% | Excellent responses, patients/group size [22]: 4/8 | Excellent responses, % of patients [23]: 40% | Excellent responses, patients/group size [23]: 17/43 | Excellent responses, % of patients [24]: 35% | Excellent responses, patients/group size [24]: 23/65 | Excellent responses, % of patients [25]: 28% | Excellent responses, patients/group size [25]: 7/25 | Excellent, % of patients [26]: (21%) | Excellent, no. of patients [26]: 12*^ | Improved, % of patients [26]: (41%) | Improved, no. of patients [26]: 23^† | Unchanged, % of patients [26]: (34%) | Unchanged, no. of patients [26]: 19^† | Worsened, % of patients [26]: (4%) | Worsened, no. of patients [26]: 2 | Excellent, % of patients (60 mg prior to sleeping, frequency at baseline 2 and 2-3, 56 patients, listed as Loxoprofen): 21% | Excellent, % of patients [27]: (47%) | Excellent, no. of patients [27]: 28^† | Improved, % of patients [27]: (31%) | Improved, no. of patients [27]: 18^† | Unchanged, % of patients [27]: (17%) | Unchanged, no. of patients [27]: 10^† | Worsened, % of patients [27]: (5%) | Worsened, no. of patients [27]: 3 | Excellent, % of patients [28]: (40%) | Excellent, no. of patients [28]: 6^ | Improved, % of patients [28]: (40%) | Improved, no. of patients [28]: 6^ | Unchanged, % of patients [28]: (20%) | Unchanged, no. of patients [28]: 3^ | Excellent, % of patients [29]: (45%) | Excellent, no. of patients [29]: 5^† | Improved, % of patients [29]: (27%) | Improved, no. of patients [29]: 3^ | Unchanged, % of patients [29]: (18%) | Unchanged, no. of patients [29]: 2^ | Worsened, % of patients [29]: (5%) | Worsened, no. of patients [29]: 1 | Excellent, % of patients [30]: (44%) | Excellent, no. of patients [30]: 14 | Improved, % of patients [30]: (38%) | Improved, no. of patients [30]: 12 | Unchanged, % of patients [30]: 19% | Unchanged, no. of patients [30]: 6 | Worsened, % of patients [30]: 3% | Worsened, no. of patients [30]: 1 | Excellent, no. of patients [31]: 13 | Improved, no. of patients [31]: 16 | Unchanged, % of patients [31]: 26% | Unchanged, no. of patients [31]: 11 | Worsened, % of patients [31]: 5% | Worsened, no. of patients [31]: 2 | Excellent, % of patients [32]: (39%) | Excellent, no. of patients [32]: 30 | Improved, % of patients [32]: (37%) | Improved, no. of patients [32]: 28 | Unchanged, % of patients [32]: 22% | Unchanged, no. of patients [32]: 17 | Worsened, % of patients [32]: 5% | Worsened, no. of patients [32]: 4 | Excellent effects, patients (60 mg prior to sleeping, patients who previously responded or were refractory to antidiuretic hormone): one of nine patients | Side effects such as dry mouth, constipation and habituation (human, in vivo): does not produce side effects | Quality of life (patients whose nocturia improved): noticeable improvements in their quality of life | Effect on voiding power (patients with BOO): does not decrease voiding power | Time to first voiding (some patients of the unchanged group): delayed by several hours
